# Source: patent US9522962B2, “Peptides, conjugates and method for increasing immunogenicity of a vaccine” (Academisch Ziekenhuis Leiden h.o.d.n. LUMC, priority 2010, dated 2016)
# Entries after “also recorded” stand apart in the source; their conditions may differ. Where two headings read alike, the source gives them in different places. Square brackets hold non-standard residues; d marks the D form. Ends that are not written are not given here. * marks the point of attachment. Biotin = O=C1N[C@H]2[C@H](CS[C@H]2CCCCC(=O)*)N1; code O = not defined here; Ahx = NCCCCCC(=O)O; For = O=C*
# Test system: antibodies in TETAQUIN® (anti-TTd antibodies)
# Assay type: binding, human
# Details: for binding to TETAQUIN (screen of overlapping 22-mer TTx peptides): FIG. 3 (α-chain), FIG. 4 (β-chain); for ELISA OD, effect of longer spacer and C- versus N-terminal biotinylation: Table 4, antibody source not given
# [1] = Table 2, length variants of peptide β-32, section 'With linker', […] diluted 800x, OD at 415 nm
# [2] = Table 2, length variants of peptide β-32, section 'Without linker' (sequence listed without Z O), […]
# [3] = Table 3, further length variants and Lys(formyl) variants, […], neg. control OD 0.30
Substance,OD [1],OD [2],other results
A N S K F I G I T E L K K L E S K I Z O (ANSKFIGITELKKLESKI-{Ahx-code O}; reading uncertain) [P4],1.05,1.05,
A N S K F I G I T E L K K L E S Z O (ANSKFIGITELKKLES-{Ahx-code O}; reading uncertain) [P8],0.85,0.85,
A N S K F I G I T E L K K L Z O (ANSKFIGITELKKL-{Ahx-code O}; reading uncertain) [P13],0.6,0.6,
A N S K F I G I T E L K Z O (ANSKFIGITELK-{Ahx-code O}; reading uncertain) [P19],0.2,0.2,
A N S K F I G I T E Z O (ANSKFIGITE-{Ahx-code O}; reading uncertain) [P26],0.2,0.2,
A N S K F I G I Z O (ANSKFIGI-{Ahx-code O}; reading uncertain) [P34],0.2,0.2,
AMDIEYNDMFNNFTVSFWLRVPZO [β41],,,binding to TETAQUIN (screen of overlapping 22-mer TTx peptides): good binding; also recorded: antibodies present
E L K K L E S K I N K V F S Z O [0925-62],,,OD [3]: 0.35
ELGKKFNIKTRLSYFSMNHDPVZO [α31],,,binding to TETAQUIN (screen of overlapping 22-mer TTx peptides): good binding; also recorded: antibodies present
"F I G I T E L J J L E S J I Z O [0925-70, J = Lys(formyl)]",,,OD [3]: 1.00
"F I G I T E L J J L E S K I Z O [0925-67, J = Lys(formyl)]",,,OD [3]: 1.15
"F I G I T E L J K L E S K I Z O [0925-64, J = Lys(formyl)]",,,OD [3]: 1.70
"F I G I T E L K J L E S J I Z O [0925-69, J = Lys(formyl)]",,,OD [3]: 1.65
"F I G I T E L K J L E S K I Z O [0925-65, J = Lys(formyl)]",,,OD [3]: 1.50
"F I G I T E L K K L E S J I Z O (FIGITELKKLESK(For)I[Ahx]K; not fully specified (residue 16)) [0925-66, J = Lys(formyl)]",,,OD [3]: 2.10
FIGITELKKLESKINKVFST Z O [0925-52],,,OD [3]: 1.85
F I G I T E L K K L E S K I N K V F S Z O [0925-53],,,OD [3]: 1.90
"F I G I T E L K K L E S K I N K V F Z Z O (FIGITELKKLESKINKVF[Ahx][Ahx]K; not fully specified (residue 21); also: O: biotin modification, exact residue form not clear)",,,"ELISA OD, effect of longer spacer and C- versus N-terminal biotinylation: 1.16"
"F I G I T E L K K L E S K I N K V Z O (FIGITELKKLESKINKV[Ahx]K; not fully specified (residue 19); also: O: biotin modification, exact residue form not clear) [0925-55]",,,OD [3]: 2.00
F I G I T E L K K L E S K I N K V Z Z O (FIGITELKKLESKINKV[Ahx][Ahx]K(Biotin)),,,"ELISA OD, effect of longer spacer and C- versus N-terminal biotinylation: 0.68"
F I G I T E L K K L E S K I N K Z O (FIGITELKKLESKINK[Ahx]K(Biotin)) [0925-56],,,OD [3]: 1.55

Substance,OD [1],OD [2],other results
F I G I T E L K K L E S K I N K Z Z O (FIGITELKKLESKINK[Ahx][Ahx]K(Biotin)),,,"ELISA OD, effect of longer spacer and C- versus N-terminal biotinylation: 0.65"
F I G I T E L K K L E S K I N Z O (FIGITELKKLESKIN[Ahx]K(Biotin)) [0925-57],,,OD [3]: 1.65
F I G I T E L K K L E S K I N Z Z O (FIGITELKKLESKIN[Ahx][Ahx]K(Biotin)),,,"ELISA OD, effect of longer spacer and C- versus N-terminal biotinylation: 0.64"
F I G I T E L K K L E S K I Z O (FIGITELKKLESKI-{Ahx-code O}; reading uncertain) [P11],1.0,1.0,
F I G I T E L K K L E S K I Z Z O (FIGITELKKLESKI[Ahx][Ahx]K(Biotin)),,,"ELISA OD, effect of longer spacer and C- versus N-terminal biotinylation: 0.79"
F I G I T E L K K L E S Z O (FIGITELKKLES-{Ahx-code O}; reading uncertain) [P17],0.45,0.45,
F I G I T E L K K L Z O (FIGITELKKL-{Ahx-code O}; reading uncertain) [P24],0.35,0.35,
F I G I T E L K Z O (FIGITELK-{Ahx-code O}; reading uncertain) [P32],0.2,0.2,
G I T E L K K L E S K I N K Z O (GITELKKLESKINK[Ahx]K(Biotin)) [0925-59],,,OD [3]: 0.75
G I T E L K K L E S K I Z O (GITELKKLESKI-{Ahx-code O}; reading uncertain) [P16],0.45,0.45,
G I T E L K K L E S Z O (GITELKKLES-{Ahx-code O}; reading uncertain) [P23],0.25,0.25,
G I T E L K K L Z O (GITELKKL-{Ahx-code O}; reading uncertain) [P31],0.2,0.2,
I G I T E L K K L E S K I N Z O (IGITELKKLESKIN[Ahx]K(Biotin)) [0925-58],,,OD [3]: 1.45
IKANSKFIGITELKKLESKI Z O (IKANSKFIGITELKKLESKI-{Ahx-code O}; reading uncertain) [P2],1.2,1.2,
I K A N S K F I G I T E L K K L E S Z O (IKANSKFIGITELKKLES-{Ahx-code O}; reading uncertain) [P5],0.9,0.9,
I K A N S K F I G I T E L K K L Z O (IKANSKFIGITELKKL-{Ahx-code O}; reading uncertain) [P9],0.6,0.6,
I K A N S K F I G I T E L K Z O (IKANSKFIGITELK-{Ahx-code O}; reading uncertain) [P14],0.2,0.2,
I K A N S K F I G I T E Z O (IKANSKFIGITE-{Ahx-code O}; reading uncertain) [P20],0.2,0.2,
I K A N S K F I G I Z O (IKANSKFIGI-{Ahx-code O}; reading uncertain) [P27],0.2,0.2,
I K A N S K F I Z O (IKANSKFI-{Ahx-code O}; reading uncertain) [P35],0.2,0.2,
IGALETTGVVLLLEYIPEITLPZO [β18],,,binding to TETAQUIN (screen of overlapping 22-mer TTx peptides): good binding; also recorded: antibodies present

Substance,OD [1],OD [2],other results
J Z F I G I T E L K K L E S K I N K V F,,,"ELISA OD, effect of longer spacer and C- versus N-terminal biotinylation: 0.17"
J Z SKFIGITELKKLESKINKVF,,,"ELISA OD, effect of longer spacer and C- versus N-terminal biotinylation: 0.28"
J Z Z F I G I T E L K K L E S K I N K V F,,,"ELISA OD, effect of longer spacer and C- versus N-terminal biotinylation: 0.22"
"J Z Z SKFIGITELKKLESKINKVF (SKFIGITELKKLESKINKVF) [J = Biotin (N-terminal), Z = Ahx]",,,"ELISA OD, effect of longer spacer and C- versus N-terminal biotinylation: 0.47"
KALNPKEIEKLYTSYLSITFLRZO [β54],,,binding to TETAQUIN (screen of overlapping 22-mer TTx peptides): good binding; also recorded: antibodies present
KFNAYLANKWVFITITNDRLSSZO [β48],,,binding to TETAQUIN (screen of overlapping 22-mer TTx peptides): good binding; also recorded: antibodies present
L K K L E S K I N K V F S T Z O (LKKLESKINKVFST[Ahx]K(Biotin)) [0925-63],,,OD [3]: 0.40
L K K L E S K I Z O (LKKLESKI-{Ahx-code O}; reading uncertain) [P29],0.2,0.2,
QYIKANSKFIGITELKKLES Z O (QYIKANSKFIGITELKKLES-{Ahx-code O}; reading uncertain) [P3],1.1,1.1,
Q Y I K A N S K F I G I T E L K K L Z O (QYIKANSKFIGITELKKL-{Ahx-code O}; reading uncertain) [P6],0.75,0.75,
Q Y I K A N S K F I G I T E L K Z O (QYIKANSKFIGITELK-{Ahx-code O}; reading uncertain) [P10],0.25,0.25,
Q Y I K A N S K F I G I T E Z O (QYIKANSKFIGITE-{Ahx-code O}; reading uncertain) [P15],0.25,0.25,
Q Y I K A N S K F I G I Z O (QYIKANSKFIGI-{Ahx-code O}; reading uncertain) [P21],0.2,0.2,
Q Y I K A N S K F I Z O (QYIKANSKFI-{Ahx-code O}; reading uncertain) [P28],0.2,0.2,
Q Y I K A N S K Z O (QYIKANSK-{Ahx-code O}; reading uncertain) [P36],0.2,0.2,
S K F I G I T E L K K L E S K I Z O (SKFIGITELKKLESKI-{Ahx-code O}; reading uncertain) [P7],1.15,1.15,
S K F I G I T E L K K L E S Z O (SKFIGITELKKLES-{Ahx-code O}; reading uncertain) [P12],0.8,0.8,
S K F I G I T E L K K L Z O (SKFIGITELKKL-{Ahx-code O}; reading uncertain) [P18],0.45,0.45,
S K F I G I T E L K Z O (SKFIGITELK-{Ahx-code O}; reading uncertain) [P25],0.2,0.2,
